For data set [1] the following is noted: cited from earlier work; for ΔG°HA(GχGVP): reference GGGVP = 0; for ΔG°HA(GχGVP) (from graph): Tt used to obtain value from experimental sigmoid curve of Tt versus ΔG°HA; for ΔG°HA(GχGVP) (data within parentheses): microbial preparations of poly(30 mers), n ≈ 40.
For data set [2] the following is noted: cited from earlier work; for Tt: guest residue χ in poly[fχ(GχGVP),fv(GVGVP)], extrapolated to fχ=1, some cells marked (Tt); for Tt (data within parentheses): microbial preparations of poly(30 mers) (GVGVP GVGVP GχGVP GVGVP GVGVP GVGVP)n, n ≈ 40.
Data set [3] can be described thus: acid-base titration of elastic-contractile model proteins (pKa shift, Hill plot). It is filed as physicochemical. The following applies: for ΔGap / ΔpKa: chemically-synthesized negatively-charged polymers of FIG. 3.
A short description of data set [4]: controlled release of charged drug from oppositely charged ECMP. As to conditions: release of Leu-enkephalin amide (LEA+); for zero order release level per day: after burst release, constant surface area. It is filed as physicochemical. An excerpt: For controlled release of pharmaceuticals, positively charged drugs packaged in negatively charged ECMP result in zero-order release. Once the rate of drug release and its ΔGap have been determined for one member of a related family of ECMP, the release rates for another member of the family can be calculated from the acid-base titration data. […] Thus, the thermodynamics of model protein hydration can be determined for a designed ECMP with a known release rate and used to calculate the release rates of a drug from a related ECMP for which only the acid-base titration data has been determined.
FIG. 3 is a plot showing controlled release of positively charged Leu-enkephalin amide (H+-Tyr-Gly-Gly-Phe-Leu-NH2, (SEQ ID NO:6), LEA+) using chemically-synthesized, negatively-charged polymers with designed increases in hydrophobicity giving ΔpKa values of 0.9, 1.3, and 2.2 and ΔGap values of 1.2, 1.8, and 3.0 kcal/mol-E, respectively. After burst release due to 50% excess drug over polymer sites, a constant surface area maintains zero order release levels per day continuing at 4.7 μmole for 25 days, 2.7 μmole for 30 days, and 1.9 μmole for 70 days, respectively. The amino acid sequences from top to bottom are: SEQ ID NO:12, SEQ ID NO:13 and SEQ ID NO:14.
FIG. 5 is a pair of graphs of release profiles showing lower rates of drug release as n of nF increases, that is, as increasing numbers of Val (V) residues are replaced by Phe (F) residues using the series of Lys(K)/Phe(F)-containing model proteins of Table 3 with Φ=K. As the negatively-charged drug is added to the soluble positively-charged model protein phase separation occurs. Drug is added to a 50% excess, which is responsible for the burst release. A. Dexamethasone-phosphate release curves and B. Betamethasone-phosphate release curves.

The conditions of data set [5]: Φ = E (glutamic acid, —COOH), cited from earlier work; for (∂ΔG/∂α) slope: from Hill plot; for ΔGgp (pKa shift): unperturbed pKa taken as 4.0.

For Ile [I: Ile], in data set [1] (DSC), the “ΔG°HA(GχGVP)” value is on record as −3.65 kcal/mol-pentamer. Further, the Tt in data set [2] was 10 °C.
On to His+ [H+: His+], for which the “ΔG°HA(GχGVP) (from graph)” value in data set [1] is listed as −1.90 (from graph) kcal/mol-pentamer. For the same substance, the Tt in data set [2] is listed as 30 (Tt) ° C.
Regarding Lys(NH2) [K°: Lys(NH2)], in data set [1] (DSC), the “ΔG°HA(GχGVP)” value is given as −0.05 kcal/mol-pentamer. Further, the “ΔG°HA(GχGVP) (data within parentheses)” value in data set [1] is −0.60 kcal/mol-pentamer. For the same substance, in data set [2], the Tt is 40 °C and the “Tt (data within parentheses)” value was 38 °C.
As for Asp(COO−) [D−: Asp(COO−)], in data set [1], the “ΔG°HA(GχGVP) (from graph)” value was “≈+3.4 (from graph) kcal/mol-pentamer”. For the same substance, in data set [2], the Tt is reported as 170 (Tt) ° C.
For the substance “N-methyl-6-OH 1,4,5,6-tetrahydronicotinamide [Lys (6-OH tetrahydro NMeN)]”, the “ΔG°HA from FIG. 13” value in data set [1] (gross estimates from Tt and curve, 5.0 mg/ml polymer, 0.1M potassium bicarbonate pH 9.5, 0.1M KCl) is -3.5 kcal/mol. Moreover, the “Tt linearly extrapolated to fX = 1” value in data set [2] (poly[fV(VPGVG),fX(VPGXG)], 5.0 mg/ml polymer, 0.1M potassium bicarbonate pH 9.5, 0.1M KCl) is 15 °C.
Turning to Asp(COOH) [D°: Asp(COOH)], the “ΔG°HA(GχGVP)” value in data set [1] (DSC) is given as −0.40 kcal/mol-pentamer. In addition, the Tt in data set [2] is 40 °C.
For “SEQ ID NO:13: chemically-synthesized, negatively-charged polymer of FIG. 3, middle sequence (GEGVPGVGVPGVGFPGFGFPGVGVPGVGVP)”, in data set [3], the ΔGap is 1.8 kcal/mol-E and the ΔpKa amounted to 1.3. In data set [4], the “duration of zero order release” value turned out to be 30 days and the “zero order release level per day” value is 2.7 µmol.
Turning to Trp [W: Trp], in data set [1] (DSC), the “ΔG°HA(GχGVP)” value is recorded as −7.00 kcal/mol-pentamer. Besides, the Tt in data set [2] was −105 °C.
In the case of Tyr [Y: Tyr], in data set [1] (DSC), the “ΔG°HA(GχGVP)” value is −5.85 kcal/mol-pentamer. In addition, the Tt in data set [2] was −75 °C.
For the substance Thr [T: Thr], in data set [1] (DSC), the “ΔG°HA(GχGVP)” value was −0.60 kcal/mol-pentamer. Further, the Tt in data set [2] is 60 °C.
On to Pro [P: Pro], for which the “ΔG°HA(GχGVP)” value in data set [1] (DSC) was −1.10 kcal/mol-pentamer. Moreover, the Tt in data set [2] is 40 °C.
As to “(GVGIP) [pentamer polymer with a single CH2 added to GVGVP]”, the “ΔGHA due to the addition of a single CH2” value in data set [1] (DSC, difference of ΔHt(GVGVP) and ΔHt(GVGIP)) is −1.5 kcal/mol-pentamer.
In the case of “[GVGVP GVGFP GΦGFP GVGVP GVGFP GFGFP]n(GVGVP) (GVGVPGVGFPGGFPGVGVPGVGFPGFGFPGVGVP) [E/5F]”, in data set [5], the “(∂ΔG/∂α) slope” value was 3.0 kcal/mol and the “ΔGgp (pKa shift)” value is 3.1 kcal/mol.
Phe [F: Phe]: the “ΔG°HA(GχGVP)” value in data set [1] (DSC) is −6.15 kcal/mol-pentamer. Also, the Tt in data set [2] is −45 °C.
On to “[GVGVP GVGVP GΦGVP GVGVP GVGVP GVGVP]n(GVGVP) (GVGVPGVGVPGGVPGVGVPGVGVPGVGVPGVGVP) [E/0F]”, for which, in data set [5], the “(∂ΔG/∂α) slope” value is recorded as 1.1 kcal/mol and the “ΔGgp (pKa shift)” value was 0.7 kcal/mol.
On to Asn [N: Asn], for which the “ΔG°HA(GχGVP)” value in data set [1] (DSC) is −0.05 kcal/mol-pentamer. In addition, the Tt in data set [2] is 50 °C.
On to Glu(COOH) [E°: Glu(COOH)], for which the “ΔG°HA(GχGVP)” value in data set [1] (DSC) was −1.30 kcal/mol-pentamer. Further, the “ΔG°HA(GχGVP) (data within parentheses)” value in data set [1] was −1.50 kcal/mol-pentamer. For the same substance, in data set [2], the Tt was 20 °C and the “Tt (data within parentheses)” value is 2 °C.
For the substance “[GVGVP GVGFP GΦGFP GVGVP GVGVP GVGVP]n(GVGVP) (GVGVPGVGFPGGFPGVGVPGVGVPGVGVPGVGVP) [E/2F]”, in data set [5], the “(∂ΔG/∂α) slope” value was 1.3 kcal/mol and the “ΔGgp (pKa shift)” value is 1.0 kcal/mol.
Regarding Ser [S: Ser], the “ΔG°HA(GχGVP)” value in data set [1] (DSC) was “+0.55 kcal/mol-pentamer”. Besides, the Tt in data set [2] was 60 °C.
In the case of Met [M: Met], in data set [1] (DSC), the “ΔG°HA(GχGVP)” value is −1.50 kcal/mol-pentamer. Further, the Tt in data set [2] was 15 °C.
As for “[GVGVP GVGFP GΦGFP GVGVP GVGFP GVGFP]n(GVGVP) (GVGVPGVGFPGGFPGVGVPGVGFPGVGFPGVGVP) [E/4F]”, in data set [5], the “(∂ΔG/∂α) slope” value is 2.2 kcal/mol and the “ΔGgp (pKa shift)” value is 2.2 kcal/mol.
As for “(GFGFPGEGFPGFGFPGFGFPGEGFPGFGFP)n (GFGFPGEGFPGFGFP) [ECMP2E/10F]”, in data set [3], the “pK of the carboxylate” value is recorded as approximately 6.2, the ΔGap is 3.0 kcal/mol-E and the ΔpKa was determined as 2.2. For the same substance, in data set [4], the “duration of zero order release” value is given as 70 days and the “zero order release level per day” value is 1.9 µmol.
Take Gln [Q: Gln]: the “ΔG°HA(GχGVP)” value in data set [1] (DSC) is “+0.75 kcal/mol-pentamer”. In data set [2], the Tt is 70 °C.
Regarding “SEQ ID NO:12: chemically-synthesized, negatively-charged polymer of FIG. 3, top sequence, least hydrophobic (GVGFPGEGFPGVGVP)”, in data set [3], the ΔGap was 1.2 kcal/mol-E and the ΔpKa was found to be 0.9. In data set [4], the “duration of zero order release” value turned out to be 25 days and the “zero order release level per day” value was 4.7 µmol.
Regarding Cys [C: Cys], the “ΔG°HA(GχGVP) (from graph)” value in data set [1] was −1.90 (from graph) kcal/mol-pentamer. Also, the Tt in data set [2] is reported as 30 (Tt) ° C.
Take Tyr(ϕ-O−) [Y−: Tyr(ϕ-O−)]: the “ΔG°HA(GχGVP)” value in data set [1] (DSC) is on record as “+1.95 kcal/mol-pentamer”. Further, the Tt in data set [2] was 140 °C.
Turning to Gly [G: Gly], the “ΔG°HA(GχGVP)” value in data set [1] (DSC) is 0.00 kcal/mol-pentamer. In addition, the Tt in data set [2] is 55 °C.
Regarding His° [H°: His°], in data set [1], the “ΔG°HA(GχGVP) (from graph)” value is −4.80 (from graph) kcal/mol-pentamer. In data set [2], the Tt is −10 (Tt) ° C.
With Val [V: Val], the “ΔG°HA(GχGVP)” value in data set [1] (DSC) was −2.50 kcal/mol-pentamer. Also, the Tt in data set [2] was 26 °C.
Consider “[GVGVP GVGVP GΦGVP GVGVP GVGFP GFGFP]n(GVGVP) (GVGVPGVGVPGGVPGVGVPGVGFPGFGFPGVGVP) [E/3F]”, for which, in data set [5], the “(∂ΔG/∂α) slope” value is recorded as 1.7 kcal/mol and the “ΔGgp (pKa shift)” value is given as 1.6 kcal/mol.

Values taken from patent US9983196B2, “Compositions and methods for optimizing drug hydrophobicity and drug delivery to cells” (Bioelastics, Inc., priority 2009, dated 2018).
